Test results published in patent publication US10959968B2, “Methods for treating c-Met-dependent cancers” (Board of Supervisors of Louisiana State University and …, priority 2016, dated 2021).

Experiments:
[1] = tested on: MDA-MB-231 human breast cancer cells; test: Wound healing assay, HGF-induced migration; assay type: cell-based; conditions: wound closure at 24 h
Procedure: (§1) FIG. 6. (A) Effect of HVS on HGF-induced migration of the highly metastatic MDA-MB-231 human breast cancer cells in wound healing assay. […] Vertical bars indicate the percentage of wound closure at 24 h after wounding, calculated relative to the wound distance at zero time±SEM of N=6 in each treatment group. SU11274 and (−)-oleocanthal were used as positive controls at 10 μM. Right panel represents photomicrographs of wound healing assay showing HVS treatment at three different concentrations (1.25, 2.5, and 5 μM) blocked the migration of MDA-MB-231 cells in response to HGF stimulation, as compared to DMSO as a vehicle control. (B) Effect of HVS on HGF-induced cell invasion of the highly aggressive MDA-MB-231 human breast cancer cells using Cultrex® BME cell invasion assay. The cells were treated with different concentrations of HVS for 24 h. Vertical bars indicate the percentage of cells invading the basement membrane at the end of treatment period±SEM of N=3 in each treatment group. (−)-Oleocanthal was used as a positive control at 20 μM dose.*P<0.05 as compared with vehicle-treated control. (C) Effect of HVS on HGF-induced scattering of the DU145 human prostate cancer cells in 2D monolayer cultures, compared to DMSO as vehicle control. Cells were treated with indicated concentrations of HVS for 30 minutes in serum-free media. […]

[2] = tested on: MDA-MB-231/GFP human breast cancer cells; test: Orthotopic breast cancer xenograft in athymic nude mice; assay type: in vivo; conditions: 10 mg/kg ip, 3×/week; end of study
Procedure: Treatment regimens were administered 3×/week, starting 5 days postinoculation. (A) Left panel; tumor volume was evaluated periodically during treatment at the indicated days postinoculation. Tumor volume (V) was calculated by V=(L×W^2)/2, where L was the length and W was the width of tumors. Points, the mean of tumor volume in mm^3 of several tumors (n=5) during the course of the treatment period; bars±SEM. *P<0.05 as compared to vehicle-treated control. Right panel; shown are two mice harboring human breast cancer. […] Error bars indicate SEM for n=5. (C) Left panel; vertical bars indicate mean tumor weight at the end of the experiment.*P<0.05 as compared to the vehicle-treated control. Error bars indicate SEM for n=5.
Breast tumor growth was compared between animals dosed ip with 10 mg/kg of HVS (n=5), 3×/week, starting on the 5th day post-inoculation and continuing for 4 weeks, vs. non-treated animals in a control group (DMSO). Tumor progression was followed by direct measurement of tumor volume starting 14 days after orthotopic cell inoculation.

[3] = tested on: c-Met phosphorylation in MDA-MB-231, MCF-7, and BT-474 mammary tumor cells; test: Western blot of HGF-induced c-Met activation in breast cancer cells; assay type: cell-based, human
Procedure: FIG. 4. A) Effect of HVS treatment on HGF-induced c-Met activation in human breast cancer cells using Western Blot analysis. […] The visualization of β-tubulin was used as a loading control. (B) Effect of HVS on HGF-induced c-Met activation and its downstream mitogenic signaling in DU145 human prostate cancer cells, as compared to vehicle-treated control group, using Western Blot analysis. Cells were pre-treated for 30 minutes with either HVS at 0.1, 0.3, 1, and 5 μM or (−)-oleocanthal at 5, 10, and 20 μM doses in serum-free 0.4-media. 33 ng/mL HGF was then added for 30 minutes. Whole cell lysates were collected and assayed by Western Blot. The visualization of α-tubulin was used as a loading control. Representative Western Blots from each experiment are shown, N=3.
Activation of c-Met prevents apoptosis and maintains cancer cell survival through activation of PI3K and subsequent Akt-NFκB activation.

[4] = tested on: MDA-MB-231 human breast cancer cells; test: Cultrex BME cell invasion assay, HGF-induced; assay type: cell-based; conditions: 24 h treatment
Procedure: as §1

[5] = tested on: MDA-MB231 spheroids; test: 3D spheroid growth, IncuCyte; assay type: cell-based, human; conditions: Homo sapiens, MDA-MB-231, 10 micromolar, up to 72 hours
Procedure: FIG. 9. (A). MDA-MB231 cells were grown in 10% FBS DMEM. Cells were collected after trypsinization and resuspended in phenol-red free DMEM with 10% FBS. Cells were labeled with CellTracker Red (Life Technologies) for 5 minutes. After labeling cells were washed with PBS and transfer into 96-well Corning 7007 ULA round bottom plates at 1,000 cells/well in 100 μl phenol-red free media with 10% FBS and 5% Matrigel. […] Spheroids were grown at 37° C. and 5% CO2 in IncuCyte ZOOM (Essen Bioscience). Images were acquired every 4 h for a period of 72 h post-treatment. The data were expressed as fold increase in spheroids size at the end of the treatment using the “average red object area in the well” as determined by the IncuCyte software analysis.
MDA-MB231 spheroids were all allowed to form and treated with compounds for up to 72 hours. Images were captured using the Incucyte platform.

[6] = target: FGFR1 (Homo sapiens, UniProt P11362); test: SelectScreen Kinase Profiling; assay type: biochemical; conditions: read-out: Mean inhibition at 10 μM of HVS (%)
Procedure: (§2) HVS was evaluated against a cross-section of tyrosine kinases (TKs), which are known to be structurally related and oncogenically relevant to c-Met, in order to understand its selectivity profile. A panel of 15 TKs was selected for biochemical analysis through the SelectScreen Kinase Profiling Service (Invitrogen, CA). In this assay, the results are expressed as % inhibition at a 10 μM dose (see Table I below).
as §2, with “Table I (Above) HVS” for “HVS”, “profile (Table 1).” for “profile.”, “(Table 1).” for “(see Table I below).”

[7] = target: KIT (Homo sapiens, UniProt P10721); test: SelectScreen Kinase Profiling; assay type: biochemical; conditions: read-out: Mean inhibition at 10 μM of HVS (%)
Procedure: as §2
as §2, with “Table I (Above) HVS” for “HVS”, “profile (Table 1).” for “profile.”, “(Table 1).” for “(see Table I below).”

[8] = target: ROS1 (Homo sapiens, UniProt P08922); test: SelectScreen Kinase Profiling; assay type: biochemical; conditions: read-out: Mean inhibition at 10 μM of HVS (%)
Procedure: as §2
as §2, with “Table I (Above) HVS” for “HVS”, “profile (Table 1).” for “profile.”, “(Table 1).” for “(see Table I below).”

[9] = target: HER2 (ERbB2) (Homo sapiens, UniProt P04626); test: SelectScreen Kinase Profiling; assay type: biochemical; conditions: read-out: Mean inhibition at 10 μM of HVS (%)
Procedure: as §2
as §2, with “Table I (Above) HVS” for “HVS”, “profile (Table 1).” for “profile.”, “(Table 1).” for “(see Table I below).”

[10] = target: PDGFRβ (Homo sapiens, UniProt P09619); test: SelectScreen Kinase Profiling; assay type: biochemical; conditions: read-out: Mean inhibition at 10 μM of HVS (%)
Procedure: as §2
as §2, with “Table I (Above) HVS” for “HVS”, “profile (Table 1).” for “profile.”, “(Table 1).” for “(see Table I below).”

[11] = target: FLT1 (VEGFR1) (Homo sapiens, UniProt P17948); test: SelectScreen Kinase Profiling; assay type: biochemical; conditions: read-out: Mean inhibition at 10 μM of HVS (%)
Procedure: as §2
as §2, with “Table I (Above) HVS” for “HVS”, “profile (Table 1).” for “profile.”, “(Table 1).” for “(see Table I below).”

[12] = target: EGFR (ERbB1) (Homo sapiens, UniProt P00533); test: SelectScreen Kinase Profiling; assay type: biochemical; conditions: read-out: Mean inhibition at 10 μM of HVS (%)
Procedure: as §2
as §2, with “Table I (Above) HVS” for “HVS”, “profile (Table 1).” for “profile.”, “(Table 1).” for “(see Table I below).”

[13] = target: ALK (Homo sapiens, UniProt Q9UM73); test: SelectScreen Kinase Profiling; assay type: biochemical; conditions: read-out: Mean inhibition at 10 μM of HVS (%)
Procedure: as §2
as §2, with “Table I (Above) HVS” for “HVS”, “profile (Table 1).” for “profile.”, “(Table 1).” for “(see Table I below).”

[14] = target: IGF1R (Homo sapiens, UniProt P08069); test: SelectScreen Kinase Profiling; assay type: biochemical
Procedure: as §2
as §2, with “Table I (Above) HVS” for “HVS”, “profile (Table 1).” for “profile.”, “(Table 1).” for “(see Table I below).”

[15] = target: HER4 (ERbB4) (Homo sapiens, UniProt Q15303); test: SelectScreen Kinase Profiling; assay type: biochemical; conditions: read-out: Mean inhibition at 10 μM of HVS (%)
Procedure: as §2
as §2, with “Table I (Above) HVS” for “HVS”, “profile (Table 1).” for “profile.”, “(Table 1).” for “(see Table I below).”

[16] = target: KDR (VEGFR2) (Homo sapiens, UniProt P35968); test: SelectScreen Kinase Profiling; assay type: biochemical; conditions: read-out: Mean inhibition at 10 μM of HVS (%)
Procedure: as §2
as §2, with “Table I (Above) HVS” for “HVS”, “profile (Table 1).” for “profile.”, “(Table 1).” for “(see Table I below).”

Chain of IGF1R (P08069 31-1367): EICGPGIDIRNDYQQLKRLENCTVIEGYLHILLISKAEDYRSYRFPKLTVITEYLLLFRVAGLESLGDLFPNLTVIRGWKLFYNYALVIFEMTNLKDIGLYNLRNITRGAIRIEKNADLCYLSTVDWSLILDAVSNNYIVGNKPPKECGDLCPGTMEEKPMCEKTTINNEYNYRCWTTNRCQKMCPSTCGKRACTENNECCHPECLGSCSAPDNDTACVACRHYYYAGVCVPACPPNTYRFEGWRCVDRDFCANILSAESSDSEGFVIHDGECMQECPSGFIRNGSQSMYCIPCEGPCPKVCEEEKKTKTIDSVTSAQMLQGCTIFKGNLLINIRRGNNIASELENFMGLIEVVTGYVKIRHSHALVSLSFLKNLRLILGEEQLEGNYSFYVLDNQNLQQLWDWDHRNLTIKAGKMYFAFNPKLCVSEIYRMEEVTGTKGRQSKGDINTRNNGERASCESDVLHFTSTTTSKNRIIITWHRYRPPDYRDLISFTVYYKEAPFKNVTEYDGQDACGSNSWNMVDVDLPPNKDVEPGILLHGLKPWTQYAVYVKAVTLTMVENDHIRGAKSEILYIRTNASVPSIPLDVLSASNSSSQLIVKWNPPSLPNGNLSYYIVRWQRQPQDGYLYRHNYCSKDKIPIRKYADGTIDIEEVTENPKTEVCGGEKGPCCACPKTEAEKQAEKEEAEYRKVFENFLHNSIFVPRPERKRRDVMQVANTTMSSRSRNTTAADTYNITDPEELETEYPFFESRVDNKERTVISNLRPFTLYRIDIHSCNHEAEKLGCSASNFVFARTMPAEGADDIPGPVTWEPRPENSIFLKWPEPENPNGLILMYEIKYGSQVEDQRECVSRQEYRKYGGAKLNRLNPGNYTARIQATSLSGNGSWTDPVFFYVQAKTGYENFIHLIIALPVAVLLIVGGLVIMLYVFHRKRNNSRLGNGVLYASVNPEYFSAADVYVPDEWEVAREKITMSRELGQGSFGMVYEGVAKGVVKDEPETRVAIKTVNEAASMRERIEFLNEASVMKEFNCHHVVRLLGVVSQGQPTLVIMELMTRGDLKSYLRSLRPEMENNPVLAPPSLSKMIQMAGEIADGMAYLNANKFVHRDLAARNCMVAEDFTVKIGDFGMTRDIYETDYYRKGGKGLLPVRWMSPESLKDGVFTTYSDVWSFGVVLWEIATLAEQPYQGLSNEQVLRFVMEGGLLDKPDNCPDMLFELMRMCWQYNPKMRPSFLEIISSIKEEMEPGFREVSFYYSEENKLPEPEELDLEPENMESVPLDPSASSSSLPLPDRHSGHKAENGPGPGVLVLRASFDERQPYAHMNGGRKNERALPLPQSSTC
Chain of FGFR1 (P11362 22-822): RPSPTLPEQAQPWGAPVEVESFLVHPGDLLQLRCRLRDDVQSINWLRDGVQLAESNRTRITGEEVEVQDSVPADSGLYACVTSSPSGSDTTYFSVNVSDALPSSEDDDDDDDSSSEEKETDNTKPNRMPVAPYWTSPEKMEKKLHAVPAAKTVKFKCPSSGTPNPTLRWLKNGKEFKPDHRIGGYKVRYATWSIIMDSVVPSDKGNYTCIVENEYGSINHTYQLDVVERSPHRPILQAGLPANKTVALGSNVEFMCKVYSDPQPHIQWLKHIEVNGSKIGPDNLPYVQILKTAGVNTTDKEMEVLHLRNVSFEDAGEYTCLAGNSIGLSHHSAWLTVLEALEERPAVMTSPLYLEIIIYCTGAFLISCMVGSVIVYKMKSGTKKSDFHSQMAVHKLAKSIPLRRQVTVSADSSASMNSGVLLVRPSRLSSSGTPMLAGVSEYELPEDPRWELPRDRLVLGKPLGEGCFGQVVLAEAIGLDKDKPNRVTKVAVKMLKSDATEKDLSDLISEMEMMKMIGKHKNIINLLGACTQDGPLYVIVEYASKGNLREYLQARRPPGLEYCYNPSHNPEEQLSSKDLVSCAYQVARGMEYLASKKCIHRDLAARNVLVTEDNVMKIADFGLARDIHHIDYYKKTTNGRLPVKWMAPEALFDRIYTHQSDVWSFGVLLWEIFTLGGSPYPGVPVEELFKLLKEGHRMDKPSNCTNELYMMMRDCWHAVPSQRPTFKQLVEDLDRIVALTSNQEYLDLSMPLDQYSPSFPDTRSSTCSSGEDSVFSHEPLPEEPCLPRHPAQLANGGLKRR
Chain of KIT (P10721 26-976): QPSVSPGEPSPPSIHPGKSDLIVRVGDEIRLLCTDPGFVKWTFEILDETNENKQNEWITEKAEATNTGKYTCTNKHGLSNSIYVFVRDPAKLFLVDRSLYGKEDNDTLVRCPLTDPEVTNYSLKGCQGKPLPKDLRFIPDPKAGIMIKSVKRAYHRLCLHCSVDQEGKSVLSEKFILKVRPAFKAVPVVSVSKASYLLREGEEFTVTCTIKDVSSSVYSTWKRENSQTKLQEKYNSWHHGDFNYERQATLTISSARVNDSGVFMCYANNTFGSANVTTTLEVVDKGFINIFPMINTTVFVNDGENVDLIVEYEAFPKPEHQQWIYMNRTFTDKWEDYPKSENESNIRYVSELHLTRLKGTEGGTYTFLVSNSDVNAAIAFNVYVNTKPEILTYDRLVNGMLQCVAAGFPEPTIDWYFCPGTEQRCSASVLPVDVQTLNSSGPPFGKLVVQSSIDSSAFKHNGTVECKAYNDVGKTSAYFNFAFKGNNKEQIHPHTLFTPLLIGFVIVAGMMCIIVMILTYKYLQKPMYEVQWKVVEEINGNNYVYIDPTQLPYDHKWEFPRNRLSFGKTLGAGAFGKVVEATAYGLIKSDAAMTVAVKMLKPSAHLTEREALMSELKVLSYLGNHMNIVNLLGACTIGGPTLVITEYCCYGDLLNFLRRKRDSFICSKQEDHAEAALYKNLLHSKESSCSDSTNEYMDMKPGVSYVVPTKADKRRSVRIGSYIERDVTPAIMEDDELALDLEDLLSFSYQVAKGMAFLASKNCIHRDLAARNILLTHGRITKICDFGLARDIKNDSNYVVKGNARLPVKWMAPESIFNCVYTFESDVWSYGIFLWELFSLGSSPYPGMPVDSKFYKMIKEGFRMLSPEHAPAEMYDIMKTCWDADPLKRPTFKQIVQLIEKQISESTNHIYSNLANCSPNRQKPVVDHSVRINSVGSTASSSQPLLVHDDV
Chain of ALK (Q9UM73 19-1620): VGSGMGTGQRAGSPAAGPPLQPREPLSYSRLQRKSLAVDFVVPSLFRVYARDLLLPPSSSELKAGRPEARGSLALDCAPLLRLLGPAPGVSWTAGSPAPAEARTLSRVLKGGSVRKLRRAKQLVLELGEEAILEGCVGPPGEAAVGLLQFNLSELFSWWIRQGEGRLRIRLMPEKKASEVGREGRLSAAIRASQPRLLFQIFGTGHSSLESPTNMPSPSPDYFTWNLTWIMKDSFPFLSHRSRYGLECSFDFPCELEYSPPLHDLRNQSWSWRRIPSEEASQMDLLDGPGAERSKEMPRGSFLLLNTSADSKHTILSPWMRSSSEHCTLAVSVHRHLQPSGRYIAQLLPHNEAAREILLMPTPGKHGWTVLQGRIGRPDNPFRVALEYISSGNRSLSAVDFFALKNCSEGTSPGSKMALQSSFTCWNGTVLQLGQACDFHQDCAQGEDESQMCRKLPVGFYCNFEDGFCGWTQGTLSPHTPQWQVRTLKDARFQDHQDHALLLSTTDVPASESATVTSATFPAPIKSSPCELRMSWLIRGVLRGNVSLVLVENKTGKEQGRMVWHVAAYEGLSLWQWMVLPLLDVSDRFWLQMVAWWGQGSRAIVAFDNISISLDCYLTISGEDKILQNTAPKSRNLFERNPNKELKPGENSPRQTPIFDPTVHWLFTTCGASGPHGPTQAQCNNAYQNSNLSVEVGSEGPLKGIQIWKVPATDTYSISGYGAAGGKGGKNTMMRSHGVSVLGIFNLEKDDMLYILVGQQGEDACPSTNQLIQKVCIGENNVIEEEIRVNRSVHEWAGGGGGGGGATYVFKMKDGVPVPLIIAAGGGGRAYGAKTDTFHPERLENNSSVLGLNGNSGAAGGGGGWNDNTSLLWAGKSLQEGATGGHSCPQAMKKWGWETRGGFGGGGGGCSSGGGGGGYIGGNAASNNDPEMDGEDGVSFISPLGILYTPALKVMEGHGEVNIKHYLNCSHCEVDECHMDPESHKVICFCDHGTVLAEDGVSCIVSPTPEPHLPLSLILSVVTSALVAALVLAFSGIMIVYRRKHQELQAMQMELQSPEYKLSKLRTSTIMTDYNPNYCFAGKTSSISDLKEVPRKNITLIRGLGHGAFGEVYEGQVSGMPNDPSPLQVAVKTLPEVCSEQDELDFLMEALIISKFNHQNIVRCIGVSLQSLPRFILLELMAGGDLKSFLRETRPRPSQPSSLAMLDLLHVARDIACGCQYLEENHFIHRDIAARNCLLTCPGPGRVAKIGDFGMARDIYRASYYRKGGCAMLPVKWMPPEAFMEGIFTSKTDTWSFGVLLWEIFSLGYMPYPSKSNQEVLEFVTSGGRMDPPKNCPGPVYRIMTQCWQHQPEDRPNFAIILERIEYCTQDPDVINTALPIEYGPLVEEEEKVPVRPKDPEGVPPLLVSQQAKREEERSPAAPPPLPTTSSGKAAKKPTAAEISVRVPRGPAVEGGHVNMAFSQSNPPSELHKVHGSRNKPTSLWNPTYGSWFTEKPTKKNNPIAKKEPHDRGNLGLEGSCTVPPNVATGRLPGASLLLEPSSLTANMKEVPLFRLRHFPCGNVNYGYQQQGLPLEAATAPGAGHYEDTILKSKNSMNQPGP

In the case of `COc1cc(CCOC(=O)/C=C/c2cc(OC)c(O)c(OC)c2)ccc1O` [Compound 8, (E)-4-hydroxy-3-methoxyph-ethyl 3-(4-hydroxy-3,5-dimethoxyphenyl) acrylate], the HGF-induced migration [1] is reported as “appears to inhibit”, the “reduction in tumor growth vs vehicle-treated control” value [2] is reported as 92% and the “HGF-induced c-Met phosphorylation” value ([3]; 72 h treatment) is reported as “significant inhibition”. The “total c-Met levels” value ([3]; at the tested concentrations) was “did not affect”, the HGF-induced invasion [4] was “appears to inhibit” and the inhibition at 10 µM [5] was 80%. It also gave an inhibition at 10 µM [6] of 50%, an inhibition at 10 µM [7] of -3% and an inhibition at 10 µM [8] of 24%. It also gave an inhibition at 10 µM [9] of 4%, an inhibition at 10 µM [10] of 14% and an inhibition at 10 µM [11] of 9%. The inhibition at 10 µM [12] was 7%, the inhibition at 10 µM [13] was 21% and the “Mean inhibition at 10 μM of HVS (%)” value [14] was “no observed inhibition”. The inhibition at 10 µM ([14]; read-out: Mean inhibition at 10 μM of HVS (%)) was -5%, the inhibition at 10 µM [15] was 7% and the inhibition at 10 µM [16] was 20%.
